Assay [1] has as its target Plasma kallikrein (Homo sapiens, UniProt P03952). Description: (§1) Determination of the IC50 for Plasma Kallikrein: Plasma kallikrein inhibitory activity in vitro was determined using standard published methods (see e.g. Johansen et al., Int. J. Tiss. Reac. 1986, 8, 185; Shori et al., Biochem. Pharmacol., 1992, 43, 1209; Sturzebecher et al., Biol. Chem. Hoppe-Seyler, 1992, 373, 1025). Human plasma kallikrein (Protogen) was incubated at 25° C. with the fluorogenic substrate H-DPro-Phe-Arg-AFC and various concentrations of the test compound. Residual enzyme activity (initial rate of reaction) was determined by measuring the change in optical absorbance at 410 nm and the IC50 value for the test compound was determined.

In assay [2] the target is Kallikrein-1 (Homo sapiens, UniProt P06870). Described as §1, with “KLK1: KLK1” for “Plasma Kallikrein: Plasma kallikrein”, “KLK1 (Callbiochem)” for “plasma kallikrein (Protogen)”, “H-DVal-Leu-Arg-AFC” for “H-DPro-Phe-Arg-AFC”.
Chain of Kallikrein-1 (P06870 whole entry): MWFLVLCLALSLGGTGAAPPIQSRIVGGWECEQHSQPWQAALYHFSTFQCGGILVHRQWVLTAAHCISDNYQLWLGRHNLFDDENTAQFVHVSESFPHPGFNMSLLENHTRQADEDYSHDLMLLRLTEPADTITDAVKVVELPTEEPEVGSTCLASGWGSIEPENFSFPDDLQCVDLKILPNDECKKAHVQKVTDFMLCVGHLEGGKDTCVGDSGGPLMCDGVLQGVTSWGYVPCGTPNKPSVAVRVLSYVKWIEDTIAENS
The target in assay [3] is Coagulation factor XI (Homo sapiens, UniProt P03951). Briefly: Determination of the % Inhibition for FXIa: FXIa inhibitory activity in vitro was determined using standard published methods (see e.g. Johansen et al., Int. J. Tiss. Reac. 1986, 8, 185; Shori et al., Biochem. Pharmacol., 1992, 43, 1209; Sturzebecher et al., Biol. Chem. Hoppe-Seyler, 1992, 373, 1025). Human FXIa (Enzyme Research Laboratories) was incubated at 25° C. with the fluorogenic substrate Z-Gly-Pro-Arg-AFC and 40 μM of the test compound (or alternatively at various concentrations of the test compound in order to determine IC50). Residual enzyme activity (initial rate of reaction) was determined by measuring the change in optical absorbance at 410 nm and the IC50 value for the test compound was determined.
Chain of Coagulation factor XI (P03951 19-387 limits assumed): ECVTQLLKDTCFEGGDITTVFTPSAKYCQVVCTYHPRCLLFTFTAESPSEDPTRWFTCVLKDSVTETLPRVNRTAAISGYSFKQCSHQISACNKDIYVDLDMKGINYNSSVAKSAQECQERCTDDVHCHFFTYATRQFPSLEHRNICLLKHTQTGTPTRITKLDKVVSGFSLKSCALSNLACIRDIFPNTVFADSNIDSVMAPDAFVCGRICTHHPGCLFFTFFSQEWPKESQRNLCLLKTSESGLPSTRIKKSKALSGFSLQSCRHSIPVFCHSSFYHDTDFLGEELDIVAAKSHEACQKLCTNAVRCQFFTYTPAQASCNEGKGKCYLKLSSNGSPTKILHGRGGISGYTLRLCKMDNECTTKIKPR
Chain of Coagulation factor XI (P03951 388-625 limits assumed): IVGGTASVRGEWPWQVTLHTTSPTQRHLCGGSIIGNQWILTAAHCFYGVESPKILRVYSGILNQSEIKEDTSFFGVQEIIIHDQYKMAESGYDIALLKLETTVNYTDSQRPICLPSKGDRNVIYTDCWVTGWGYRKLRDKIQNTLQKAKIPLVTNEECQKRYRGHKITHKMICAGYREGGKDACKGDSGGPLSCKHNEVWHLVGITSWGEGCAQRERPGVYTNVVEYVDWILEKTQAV

Chain of Plasma kallikrein (P03952 20-390 limits assumed): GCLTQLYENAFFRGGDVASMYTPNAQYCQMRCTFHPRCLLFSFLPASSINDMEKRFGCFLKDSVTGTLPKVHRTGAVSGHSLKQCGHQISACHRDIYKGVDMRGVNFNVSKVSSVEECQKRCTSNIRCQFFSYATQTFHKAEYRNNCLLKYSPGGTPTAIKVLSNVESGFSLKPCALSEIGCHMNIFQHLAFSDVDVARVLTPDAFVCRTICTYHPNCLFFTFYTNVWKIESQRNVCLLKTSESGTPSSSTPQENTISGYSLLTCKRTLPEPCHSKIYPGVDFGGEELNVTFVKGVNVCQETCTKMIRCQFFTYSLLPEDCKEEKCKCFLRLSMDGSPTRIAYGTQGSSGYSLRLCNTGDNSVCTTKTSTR
Chain of Plasma kallikrein (P03952 391-638 limits assumed): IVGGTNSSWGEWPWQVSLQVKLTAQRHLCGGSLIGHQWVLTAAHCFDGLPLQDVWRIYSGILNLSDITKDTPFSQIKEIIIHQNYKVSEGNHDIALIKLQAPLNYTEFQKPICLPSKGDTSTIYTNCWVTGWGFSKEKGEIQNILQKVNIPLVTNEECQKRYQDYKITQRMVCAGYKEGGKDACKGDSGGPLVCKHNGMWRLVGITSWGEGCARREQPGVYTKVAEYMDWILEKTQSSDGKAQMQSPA

One may read the IC50 as the concentration at which inhibition is half-maximal. A higher IC50 goes with a need for much substance. In the case of `COCc1nn(Cc2ccc3c(c2)CN(C(C)C)C3)cc1C(=O)NCc1c(-n2cc(C)nn2)ccc(OC)c1F`, the IC50 in assay [1] is less than 10 nM; in assay [2] it was greater than 40000 nM; in assay [3] it was greater than 40000 nM.
With `COCc1nn(Cc2cnc(N3CCCC3)nc2)cc1C(=O)NCc1c(-n2ccnn2)ccc(OC)c1F`, the IC50 was less than 10 nM in assay [1], greater than 40000 nM in assay [2] and 970 nM in assay [3].
For `COCc1nn(Cc2cnc(N3CCCC3)nc2)cc1C(=O)NCc1c(-n2cc(C)nn2)ccc(OC)c1F`, in that order: less than 10 nM, greater than 40000 nM and 1840 nM.

The record behind these values is ChEMBL document CHEMBL5729649, “Enzyme inhibitors” (2023).
